Reference: patent US10829509B2, “Pure heptasulfated disaccharides having improved oral bioavailability” (OPKO Pharmaceuticals, LLC., priority 2016, dated 2020)
“Also recorded” adds a separate entry of the source.

Experiments:
[1] = test system: allergic sheep challenged with Ascaris suum antigen; assay: Antigen-induced early and late airway responses (EAR, LAR), pulmonary airflow resistance RL, in allergic sheep; type: in vivo
Experimental: (§1) Pulmonary airflow resistance was measured by taking allergic sheep previously verified as dual bronchoconstrictor responders to Ascaris suum antigen. The sheep were intubated with a cuffed nasotracheal tube and pulmonary airflow resistance (RL) was measured by the esophageal balloon catheter technique. Airway responsiveness was determined by first securing cumulative dose response curves to inhaled carbachol (a constrictor agonist) by measuring RL before and after inhalation of buffered saline and after each administration of 10 breaths of increasing concentrations of carbachol (0.25, 0.5, 1.0, 2.0 and 4.0% wt/vol solution). Airway responsiveness was measured by determining the cumulative provocation dose (PD400) of carbachol (in breath units) that increased RL to 400% above baseline. One breath unit was defined as one breath of 1% carbachol solution.
To illustrate the effectiveness of the formulations according to the invention to treat and alleviate allergen related diseases and conditions, including but not limited to the specific diseases and conditions recited herein, sheep were assessed in multiple experiments which compared various formulations containing no active ingredient to animals which were provided formulations comprising a compound of formula I (SSS-02). To measure pulmonary airflow resistance, the sheep were intubated with a cuffed nasotracheal tube and pulmonary airflow resistance (RL) was measured by the esophageal balloon catheter technique. These methods are accepted and well known methods found in the literature.
(§2) For airway studies, each animal's baseline airway responsiveness (PD400) was determined and then, on different experimental days, the test sheep underwent airway challenge with Ascaris suum antigen. RL was measured to establish baseline, then measured again immediately after antigen challenge and hourly for an eight hour period and then a post challenge PD400 was measured 24 hours after antigen challenge. In each of the Figures presented herein, FIGS. 1A, 2A, 3A etc. present day two data measured on an hourly basis for the eight hour period and contain control data (closed circles) and drug treatment data (open circles or triangles (closed or open)). The drug treatment experiments were conducted on the same animals used in the control studies but after a period of several weeks following the day 3 PD400 measurements. FIGS. 1B, 2B, 3B etc. contain the day one baseline PD400 data and day three PD400 data following antigen challenge in control or drug treated animals.
(§3) Data were expressed or may be expressed as (a) mean+/−SE % change of RL and (b) PD400 in breath units. Data were also expressed as (c) % protection of Early Airway Response (EAR, for 0-4 hours) and Late Airway Response (LAR, for 4-8 hours), as estimated by area under the curve for EAR and LAR respectively. And (d) AHR %

[2] = test system: allergic sheep challenged with Ascaris suum antigen; assay: Post-antigen airway hyperresponsiveness (AHR), PD400 of inhaled carbachol, in allergic sheep; type: in vivo
Experimental: as §1
To assess airway responsiveness, cumulative dose response curves to inhaled carbachol were performed by measuring RL before and after inhalation of buffered saline and after each administration of 10 breaths of increasing concentrations of carbachol (0.25, 0.5, 1.0, 2.0, and 4.0% wt/vol solution). Airway responsiveness was measured by determining the cumulative provocation dose (PD400) of carbachol (in breath units) that increased RL to 400% above baseline. One breath unit was defined as one breath of 1% carbachol solution.
as §2, §3
Thus, the numbers in the Figures as presented were obtained by the formula: Baseline PD400-drugantigenPD400 was x-y;Baseline PD400-ControlantigenPD400 was x-z. x-y/x-z×100=n. 100−n=X % protection in AHR.

[3] = 0.5 mg/kg QD x 4 days oral versus i.v., sheep, listed as 2,5-anhydro-3-O-(α-L-idopyranosyl)-D-mannitol hepta-O-sulfate sodium salt
[4] = i.v. 0.5 mg/kg QD for 4 days, last dose 90 min before antigen, n=5
[5] = inhaled multiple dose 10 mg x 3, n=6
[6] = inhaled multiple dose 10 mg x 3, n=6, sodium salt
[7] = inhaled single dose 10 mg, 30 min before antigen, n=5
[8] = oral 0.5 mg/kg BID x 7 doses, last dose 90 min before antigen, n=5
[9] = oral 0.5 mg/kg x 3 doses, one every 12 h, antigen 90 min after last dose, n=8
[10] = oral 1 mg/kg x 3 doses, one every 12 h, antigen 90 min after last dose, n=8
[11] = oral liquid 0.5 mg/kg QD for 4 days, last dose 90 min before antigen, n=5
[12] = single oral dose 0.5 mg/kg, 90 min before antigen, n=5
[13] = single oral dose 1 mg/kg, 90 min before antigen, n=5

## O=S(=O)([O-])OC[C@@H]1O[C@@H](O[C@H]2[C@H](OS(=O)(=O)[O-])[C@@H](COS(=O)(=O)[O-])O[C@@H]2COS(=O)(=O)[O-])[C@H](OS(=O)(=O)[O-])[C@@H](OS(=O)(=O)[O-])[C@@H]1OS(=O)(=O)[O-].[Na+].[Na+].[Na+].[Na+].[Na+].[Na+].[Na+] [SSS-056-01, 2,5-anhydro-3-O-(α-L-idopyranose)-D-mannitol-hepta-O-sulfate-hepta sodium salt]
[1]; [4]
  inhibition of EAR: 77%
  inhibition of LAR: 92%
[1]; [5]
  inhibition of LAR: 75%
[1]; [6]
  effect on EAR: without an effect; also recorded: no significant cumulative effect
  effect on LAR (in words): did have an effect on LAR; also recorded: did inhibit LAR
[1]; inhaled single dose 5 mg, 30 min before antigen, n=5
  effect on EAR, LAR and AHR: ineffective
[1]; [7]
  effect on EAR: without an effect
  inhibition of LAR: 75%
[1]; oral 0.25 mg/kg x 3 doses, one every 12 h, antigen 90 min after last dose, n=8
  effect on EAR, LAR and AHR: ineffective
[1]; [8]
  inhibition of EAR: 76%
  inhibition of LAR: 96%
[1]; [9]
  inhibition of EAR: 30%
  inhibition of LAR: 85%
[1]; [10]
  inhibition of EAR: 54%
  inhibition of LAR: 87%
[1]; [11]
  inhibition of EAR: 77%
  inhibition of LAR: 95%
[1]; single oral dose 0.25 mg/kg, 90 min before antigen, n=5
  effect on EAR, LAR and AHR: ineffective
[1]; [12]
  effect on EAR: without an effect
  inhibition of LAR: 71%
[1]; [13]
  effect on EAR: without an effect
  inhibition of LAR: 77%
[2]; i.v. 0.5 mg/kg QD for 4 days, PD400 24 h post-antigen, n=5
  inhibition of AHR: 100%
[2]; [5]
  inhibition of AHR: 100%
[2]; [7]
  inhibition of AHR: 100%
[2]; oral 0.5 mg/kg BID x 7 doses, n=5
  inhibition of AHR: 100%
[2]; oral 0.5 mg/kg x 3 doses, one every 12 h, n=8
  inhibition of AHR: 100%
[2]; oral 1 mg/kg x 3 doses, one every 12 h, n=8
  inhibition of AHR: 100%
[2]; oral liquid 0.5 mg/kg QD for 4 days, PD400 24 h post-antigen, n=5
  inhibition of AHR: 100%
[2]; [12]
  inhibition of AHR: 100%
[2]; [13]
  inhibition of AHR: 100%
[3]
  bioavailability of oral dose versus intravenous dose: comparable bioavailability
